In brackets after ≈: the same amount, converted by molar mass. Activity calls are given as the source filed them.

Data set [1] has as its system Mycobacterium tuberculosis. Put plainly: Antimycobacterial activity against Mycobacterium tuberculosis H37Rv after 2 weeks by microplate alamar blue assay. The format is functional. To be noted: 336 h. Background: Resazurin is reduced to fluorescent resorufin, in cell work by metabolically active cells.
The test system of data set [2] is Mycobacterium tuberculosis. Put plainly: Antimycobacterial activity against Mycobacterium tuberculosis H37Rv measured after 1 week. The settings on record: 168 h. The format is functional.
Data set [3] has as its system Mycobacterium tuberculosis. The experiment in a line: Antimycobacterial activity against Mycobacterium tuberculosis H37Rv measured after 2 weeks. The format is functional. The settings on record: 336 h.
For data set [4], the system named is Mycobacterium tuberculosis. Put plainly: Antimycobacterial activity against Mycobacterium tuberculosis H37Rv BSG001. The format is functional, organism-based.
The test system of data set [5] is Mycobacterium tuberculosis H37Rv. Put plainly: Inhibition of Mycobacterium tuberculosis H37Rv cytochrome bc1 oxidase assessed as reduction in ATP level measured up to 24 hrs under anaerobic condition.
A further data set has as its system Escherichia coli. The experiment in a line: Antibacterial activity against Escherichia coli 25922. The format is functional, organism-based. The settings on record: ATCC 25922.
The test system of the next data set is Staphylococcus aureus. Put plainly: Antibacterial activity against Staphylococcus aureus XEN36. The format is functional, organism-based.
Data set [6] has as its system Mycolicibacterium smegmatis. Put plainly: Antibacterial activity against Mycobacterium smegmatis. The format is functional, organism-based.
In data set [7] the test system is Mycobacteroides abscessus. The experiment in a line: Antibacterial activity against Mycobacterium abscessus. It counts as functional, organism-based.
Data set [8] in a line: Cytotoxicity against human HepG2 cells after 24 to 48 hrs in presence of galactose by trypan blue dye-based hemocytometric method. The format is cell-based.
The nature of data set [9]: Cytotoxicity against human HepG2 cells after 24 to 48 hrs in presence of glucose by trypan blue dye-based hemocytometric method. The format is cell-based.

One may read the MIC as the smallest concentration in the dilution series that meets the test's criterion for growth inhibition. A lower MIC goes with a more susceptible organism. By CC50 is commonly meant the concentration that lowers cell viability or growth by half. `COc1ccc2nc(C)cc(OCC(=O)Nc3ccccc3Cl)c2c1`: the minimum inhibitory concentration (MIC) came out at 0.56 µM (≈ 0.2 µg/mL) in data set [1], 26.4 µM (≈ 9.4 µg/mL) in data set [2] and 53.2 µM (≈ 19 µg/mL) in [3]. Also, the outcome (in data set [4]; with Escherichia coli; in the data set on Staphylococcus aureus; in [6]; in data set [7]) was inactive. In data set [5], the inhibition entry was “Active”. Further, the CC50 in data set [8] and in data set [9] was more than 140 µM throughout.
With `COc1ccc2nc(C)cc(OCC(=O)NCCc3ccc(OC)c(OC)c3)c2c1`, the minimal inhibitory concentration (MIC) is 122 µM (≈ 50.1 µg/mL) in data set [1], more than 122 µM in data set [2] and more than 122 µM in [3]. Moreover, the outcome (in data set [4]; with Escherichia coli; with Staphylococcus aureus; in data set [6]; in [7]) was inactive. Moreover, in data set [5], the inhibition result is “Active”. Besides, the CC50 in data set [8] and in data set [9] was more than 122 µM throughout.
Turning to `COc1ccccc1NC(=O)COc1cc(C)nc2ccccc12`, the MIC in data set [1] was more than 78 µM; in data set [2], 38.8 µM (≈ 12.5 µg/mL); in data set [3] it was more than 155 µM. The result (in [4]; in the data set on Escherichia coli; with Staphylococcus aureus; in data set [6]; in [7]) was inactive. In addition, the inhibition entry in data set [5] is “Active”. The CC50 came out at 8.64 µM in [8] and 43.9 µM in data set [9].
As to `COCCNC(=O)COc1cc(C)nc2ccc(OC)cc12`, the MIC in [1] was 122 µM (≈ 37 µg/mL); in data set [2], more than 164 µM; in data set [3], more than 164 µM. Further, the result (in [4]; in the data set on Escherichia coli; with Staphylococcus aureus; in data set [6]; in data set [7]) was inactive. In addition, the inhibition entry in data set [5] is “Active”. In addition, the CC50 in [8] and in data set [9] was more than 164 µM throughout.
In the case of `COc1ccc2nc(C)cc(OCC(=O)Nc3ccc(Br)cc3)c2c1`, the MIC in data set [1] was 1.94 µM (≈ 0.778 µg/mL); in data set [2], more than 125 µM; in [3] it was more than 125 µM. Further, the result (in data set [4]; with Escherichia coli; with Staphylococcus aureus; in data set [6]; in [7]) was inactive. Moreover, in [5], the inhibition result was “Active”. The CC50 in data set [8] and in [9] was more than 125 µM throughout.
Take `c1ccc(Cn2cnc3c(-c4ccco4)nccc32)cc1`: the minimum inhibitory concentration (MIC) in data set [1] was 1.56 µM (≈ 0.429 µg/mL); in data set [2] it was 12.5 µM (≈ 3.44 µg/mL); in data set [3], more than 25 µM. Further, the inhibition entry in data set [5] is “Active”. Further, the CC50 in [8] and in data set [9] was more than 25 µM each time.
Take `CC(=O)NC[C@H]1CN(c2ccc(N3CCOCC3)c(F)c2)C(=O)O1` [LINEZOLID]: the minimum inhibitory concentration (MIC) in data set [1], in data set [2] and in [3] was 2.3 µM (≈ 0.776 µg/mL) in each case. In addition, in data set [5], the inhibition entry was “inactive”.
Consider `COc1ccc2nc(C)cc(OCC(=O)NCc3ccc4c(c3)OCO4)c2c1`, for which the MIC in data set [1] is 0.53 µM (≈ 0.202 µg/mL); in [2] it was 0.53 µM (≈ 0.202 µg/mL); in [3], 24.7 µM (≈ 9.4 µg/mL). In addition, the outcome (in [4]; with Escherichia coli; with Staphylococcus aureus; in data set [6]; in data set [7]) was inactive. For the same molecule, the inhibition entry in data set [5] is “Active”. Also, the CC50 is 86.9 µM in [8] and more than 131 µM in data set [9].
`COc1ccc2nc(C)cc(OCC(=O)Nc3ccc(C)cc3)c2c1`: the MIC in data set [1] was 0.45 µM (≈ 0.151 µg/mL); in data set [2], 0.45 µM (≈ 0.151 µg/mL); in [3], more than 149 µM. Moreover, the result (in [4]; in the data set with Escherichia coli; with Staphylococcus aureus; in [6]; in [7]) was inactive. Further, in [5], the inhibition entry was “Active”. Also, the CC50 in [8] was 41.5 µM; in [9], more than 149 µM.
Regarding `COc1ccc2nc(C)cc(OCC(=O)Nc3ccc(Cl)cc3)c2c1`, the minimum inhibitory concentration (MIC) is 3.36 µM (≈ 1.2 µg/mL) in data set [1], 104 µM (≈ 37 µg/mL) in data set [2] and more than 140 µM in [3]. Also, the result (in data set [4]; in the data set with Escherichia coli; with Staphylococcus aureus; in data set [6]; in data set [7]) was inactive. For the same molecule, in data set [5], the inhibition result is “Active”. Besides, the 50% cytotoxic concentration (CC50) in [8] turned out to be 71.1 µM; in data set [9], 89.9 µM.
In the case of `COc1ccc2nc(C)cc(OCC(=O)NCCc3ccc4c(c3)OCO4)c2c1`, the minimal inhibitory concentration (MIC) is 31.7 µM (≈ 12.5 µg/mL) in data set [1], not below 127 µM in [2] and more than 127 µM in data set [3]. Further, the outcome (in [4]; in the data set on Escherichia coli; with Staphylococcus aureus; in data set [6]; in data set [7]) was inactive. Besides, the inhibition result in [5] is “Active”. The CC50 in data set [8] and in data set [9] was more than 127 µM in each case.
For the molecule `COc1nc2ccc(Br)cc2cc1[C@@H](c1ccccc1)[C@@](O)(CCN(C)C)c1cccc2ccccc12`, the inhibition entry in data set [5] was “Active”.
Consider `COc1ccc2nc(C)cc(OCC(=O)NCCCc3ccccc3)c2c1`, for which the MIC in [1] came out at 25.8 µM (≈ 9.4 µg/mL); in data set [2] it was 68.6 µM (≈ 25 µg/mL); in data set [3], 68.6 µM (≈ 25 µg/mL). Further, the outcome (in [4]; in the data set on Escherichia coli; in the data set with Staphylococcus aureus; in data set [6]; in data set [7]) was inactive. In data set [5], the inhibition entry is “Active”. The CC50 in [8] is 50.7 µM; in data set [9], more than 137 µM.
For `COc1cccc(NC(=O)COc2cc(C)nc3ccc(OC)cc23)c1`, the MIC is 6.53 µM (≈ 2.3 µg/mL) in data set [1], 142 µM (≈ 50 µg/mL) in data set [2] and more than 142 µM in data set [3]. For the same molecule, the outcome (in [4]; in the data set on Escherichia coli; with Staphylococcus aureus; in [6]; in data set [7]) was inactive. Further, the inhibition result in data set [5] was “Active”. Further, the CC50 in data set [8] turned out to be 24.7 µM; in [9] it was 43 µM.
Take `COc1ccccc1NC(=O)COc1cc(C)nc2ccc(Br)cc12`: the MIC was more than 125 µM in data set [1], 23.4 µM (≈ 9.4 µg/mL) in data set [2] and more than 125 µM in [3]. The result (in data set [4]; with Escherichia coli; in the data set on Staphylococcus aureus; in data set [6]; in data set [7]) was inactive. Besides, the inhibition result in data set [5] was “Active”. Besides, the cytotoxic concentration (CC50) in data set [8] and in data set [9] was more than 125 µM in each case.
For the molecule `Nc1ccc(C(=O)O)c(O)c1` [AMINOSALICYLIC ACID], the values for the minimum inhibitory concentration (MIC) in [1], in data set [2] and in [3] were 0.3 µM (≈ 0.0459 µg/mL), 0.3 µM (≈ 0.0459 µg/mL) and 0.6 µM (≈ 0.0919 µg/mL), respectively.
As for `COc1ccc2nc(C)cc(OCC(=O)Nc3cccc(Br)c3)c2c1`, the figures for the minimal inhibitory concentration (MIC) in data set [1], in data set [2] and in data set [3] were more than 125 µM, 92.2 µM (≈ 37 µg/mL) and more than 125 µM, respectively. The result (in data set [4]; with Escherichia coli; with Staphylococcus aureus; in data set [6]; in [7]) was inactive. Further, in data set [5], the inhibition result was “Active”. Also, the 50% cytotoxic concentration (CC50) in data set [8] and in data set [9] was more than 125 µM in each case.
Regarding `COc1ccc2nc(C)cc(OCC(=O)Nc3ccccc3)c2c1`, the MIC in data set [1] is 0.62 µM (≈ 0.2 µg/mL); in data set [2] it was 1.21 µM (≈ 0.39 µg/mL); in [3] it was more than 155 µM. For the same molecule, the outcome (in data set [4]; in the data set on Escherichia coli; in the data set on Staphylococcus aureus; in data set [6]; in [7]) was inactive. Moreover, the inhibition result in data set [5] is “Active”. The CC50 was 118 µM in [8] and more than 155 µM in data set [9].
As for `COc1ccccc1NC(=O)COc1cc(C)nc2ccc(Cl)cc12`, the MIC is 104 µM (≈ 37 µg/mL) in data set [1], 26.4 µM (≈ 9.4 µg/mL) in data set [2] and more than 140 µM in [3]. The outcome (in [4]; in the data set on Escherichia coli; in the data set with Staphylococcus aureus; in data set [6]; in data set [7]) was inactive. Moreover, the inhibition entry in [5] is “Active”. For the same molecule, the CC50 was found to be 99.2 µM in data set [8] and 140 µM in data set [9].
`COc1ccc2nc(C)cc(OCC(=O)NCCc3ccccc3)c2c1`: the figures for the minimum inhibitory concentration (MIC) in data set [1], in data set [2] and in data set [3] were 54.2 µM (≈ 19 µg/mL), 143 µM (≈ 50 µg/mL) and more than 143 µM, respectively. In addition, the result (in [4]; in the data set on Escherichia coli; with Staphylococcus aureus; in data set [6]; in [7]) was inactive. The inhibition entry in data set [5] is “Active”. Besides, the results for the CC50 in [8] and in data set [9] were 83.9 µM and 61.4 µM, respectively.
As for `CCCCCC[C@H]1C(=O)O[C@H](C)[C@H](NC(=O)c2cccc(NC=O)c2O)C(=O)O[C@@H](C)[C@@H]1OC(=O)CC(C)C` [ANTIMYCIN A], the half-maximal cytotoxic concentration (CC50) is 0.017 µM in data set [8] and more than 50 µM in [9].

The values above are taken from ChEMBL document CHEMBL4190162, “SAR and identification of 2-(quinolin-4-yloxy)acetamides as Mycobacterium tuberculosis cytochrome bc1 inhibitors” (Medchemcomm, 2016).
